Experiment [1] has as its system human breast cancer cell line (MCF-7). Nature of the experiment: Antiproliferative activity, CCK-8 assay, MCF-7. The following applies: CCK-8, 48 h, means of three experiments. It counts as cell-based. As for the experimental part: Cell culture and cytotoxicity assay […]
against MCF-7 human breast cancer cell line by using the CCK -8 assay with cisplatin, […]
cultured in RPMI-1640 medium containing 10% fetal bovine serum in a humidified 5% CO2 atmosphere at 37 °C. Cells were seeded into 96-well plates at a density of 1×10^5 cells/well and incubated for 24 h. After incubation, the cells were treated with vehicle control, reference drugs, or title compounds, and incubated at 37 °C for 48 h.
Then CCK-8 was added and incubated for another 4 h. The absorbance values of the solution at 450 nm were measured using microplate reader, and each experiment was performed at least in triplicate. Then the results were expressed as the IC50 values. […]

Experiment [2] deals with human lung adenocarcinoma cell line (A549). Nature of the experiment: Antiproliferative activity, CCK-8 assay, A549. It is filed as cell-based. The note with it: CCK-8, means of three experiments. (In general: Formazan colour is commonly taken as a measure of viable cells.)
In experiment [3] the test system is normal human embryonic kidney cell line (HEK293). Nature of the experiment: Inhibitory activity against normal cell line HEK293. It is filed as cell-based.
The next experiment has as its system purified tubulin protein. Nature of the experiment: In vitro tubulin polymerisation assay. It counts as biochemical. The following applies: 37 °C, 20 min incubation. As for the experimental part:
1.3. In vitro tubulin polymerization assay
The purified tubulin protein was mixed with different concentrations of compound 5b […]
PEM buffer (100 mM PIPES, 1 mM MgCl2, and 1 mM EGTA) with 1 mM GTP and 5% glycerol. Then the mixture was immediately monitored under 340 nm at 37 °C every 1 min for 20 min using the spectrophotometer. The plateau absorbance values were used for calculations. The IC50 value was defined as the concentration of the compound

Experiment [4] deals with MCF-7 cancer cells. In words: Cell cycle analysis by flow cytometry. It is filed as cell-based, human. The following applies: 24 h; for G2 (G2/M) population: control 26.66%; for S population: control 33.42%; for G1 population: control 39.92%. As for the experimental part: Based on the literature report, most tubulin destabilising agents can disrupt regulated cell cycle distribution and lead to cell cycle arrest at metaphase[23]^,[31]. Therefore, we evaluated the effect of the most promising compound 5b on the cell cycle of MCF-7 cancer cells using the flow cytometry analysis assay. In this study, MCF-7 cancer cells were incubated with different concentrations of 5b (0.3125, 0.625, and 1.25 μM) for 24 h. […]
MCF-7 cells were seeded in 6-well plates (3 × 10^5 cells/well) and incubated in the absence and presence of different concentrations of compound 5b (0.3125, 0.625, and 1.25 μM) for 24 h. Subsequently, the cells were harvested, washed with PBS, and fixed in 70% ice-cold ethanol at 4 °C overnight. After removed the ethanol in the next day, the cells were resuspended in the staining buffer and incubated with RNase and propidium iodide for 30 min. […]

The test system of experiment [5] is MCF-7 cancer cells. Nature of the experiment: Annexin V-FITC/PI apoptosis assay. It counts as cell-based, human. The following applies: 24 h; for total numbers of early and late apoptotic cells: control 4.93%. The protocol:
Considering that tubulin polymerisation inhibitors can induce cellular apoptosis, the Annexin V-FITC/PI assay was performed to detect whether compound 5b was able to induce cancer cell apoptosis. […]
MCF-7 cells were seeded in 6-well plates (3 × 10^5 cells/well) and incubated with different concentrations of compound 5b (0.3125, 0.625, and 1.25 μM) or vehicle for 24 h. Cells were harvested and incubated with 5 μL of Annexin-V/FITC in 300 μL binding buffer for 15 min. Then, PI solution (10 μL) was added to the medium and […]
incubated for 5 min. […]

A further experiment has as its system tubulin. Further details: method as in PMID 31724435. The note with it: naphthalene-chalcone derivative of earlier work ref 23; read-out: Tubulin polymerisation IC50; cited from earlier work.

Broadly, the IC50 is the concentration needed to halve the response being measured. For the compound `CCOc1ccc(-c2sc(NC(=O)C(C)C)nc2-c2ccc(OC)c3ccccc23)cc1` [6i], the 50% inhibitory concentration (IC50) in experiment [1] (Homo sapiens, MCF7) was 7.69 ± 0.34 µM; in experiment [2] (Homo sapiens, A549), above 50 µM.

As to `COc1cc(-c2sc(NC(=O)C(C)C)nc2-c2ccc(OC)c3ccccc23)c(Br)c(OC)c1OC` [6k], the IC50 was above 50 µM in experiment [1] (Homo sapiens, MCF7) and above 50 µM in experiment [2] (Homo sapiens, A549).

Turning to `COc1ccc(-c2sc(N)nc2-c2ccc(OC)c3ccccc23)cc1` [5a], the IC50 amounted to 1.8 ± 0.07 µM in experiment [1] (Homo sapiens, MCF7) and 2.72 ± 0.18 µM in experiment [2] (Homo sapiens, A549).

With `COc1cc(-c2sc(N)nc2-c2ccc(OC)c3ccccc23)c(Br)c(OC)c1OC` [5c], the half-inhibitory concentration (IC50) in experiment [1] (Homo sapiens, MCF7) was 31.1 ± 0.7 µM; in experiment [2] (Homo sapiens, A549), above 50 µM.

As for `CCOc1ccc(-c2sc(NC(=O)CC)nc2-c2ccc(OC)c3ccccc23)cc1` [6g], the IC50 turned out to be 9.61 ± 0.54 µM in experiment [1] (Homo sapiens, MCF7) and 18.7 ± 0.89 µM in experiment [2] (Homo sapiens, A549).

Regarding `COc1ccc(-c2sc(NC(C)=O)nc2-c2ccc(OC)c3ccccc23)cc1` [6a], the IC50 in experiment [1] (Homo sapiens, MCF7) turned out to be 2.16 ± 0.27 µM; in experiment [2] (Homo sapiens, A549) it was 16.1 ± 0.83 µM.

As to `CCC(=O)Nc1nc(-c2ccc(OC)c3ccccc23)c(-c2cc(OC)c(OC)c(OC)c2Br)s1` [6j], the IC50 was above 50 µM in experiment [1] (Homo sapiens, MCF7) and above 50 µM in experiment [2] (Homo sapiens, A549).

On to `CCCC(=O)Nc1nc(-c2ccc(OC)c3ccccc23)c(-c2ccc(OC)cc2)s1` [6c], for which the IC50 was 14.9 ± 0.34 µM in experiment [1] (Homo sapiens, MCF7) and above 50 µM in experiment [2] (Homo sapiens, A549).

On to `COc1ccc(-c2sc(NC(=O)C(C)C)nc2-c2ccc(OC)c3ccccc23)cc1` [6e], for which the IC50 in experiment [1] (Homo sapiens, MCF7) was 12.3 ± 0.54 µM; in experiment [2] (Homo sapiens, A549), above 50 µM.

In the case of `CCOc1ccc(-c2sc(N)nc2-c2ccc(OC)c3ccccc23)cc1` [5b], the IC50 stood at 0.48 ± 0.03 µM in experiment [1] (Homo sapiens, MCF7); 0.97 ± 0.13 µM in experiment [2] (Homo sapiens, A549); 16.4 ± 4.61 µM in experiment [3]; 3.3 µM in the experiment with purified tubulin protein. Besides, the “G2 (G2/M) population” value with MCF-7 cancer cells [4] (5b 0.3125 μM) is recorded as 29.03%; in the experiment with MCF-7 cancer cells [4] (5b 0.625 μM), 47.32%; with MCF-7 cancer cells [4] (5b 1.25 μM), 72.49%. Further, the S population with MCF-7 cancer cells [4] (5b 0.3125 μM) turned out to be 28.11%; in the experiment with MCF-7 cancer cells [4] (5b 0.625 μM), 36.61%; in the experiment with MCF-7 cancer cells [4] (5b 1.25 μM), 20.22%. Further, the G1 population with MCF-7 cancer cells [4] (5b 0.3125 μM) is 42.86%; in the experiment on MCF-7 cancer cells [4] (5b 0.625 μM), 16.06%; in the experiment with MCF-7 cancer cells [4] (5b 1.25 μM) it was 7.29%. Also, the Q1 quadrant with MCF-7 cancer cells [5] (5b 0.3125 μM) amounted to 0.25; with MCF-7 cancer cells [5] (5b 0.625 μM), 0.44; in the experiment with MCF-7 cancer cells [5] (5b 1.25 μM), 0.55. Also, the Q2 quadrant in the experiment on MCF-7 cancer cells [5] (5b 0.3125 μM) is on record as 10.2; in the experiment on MCF-7 cancer cells [5] (5b 0.625 μM) it was 14.8; with MCF-7 cancer cells [5] (5b 1.25 μM), 15.1. Moreover, the Q3 quadrant in the experiment on MCF-7 cancer cells [5] (5b 0.3125 μM) is given as 5.58; in the experiment on MCF-7 cancer cells [5] (5b 0.625 μM), 10.8; in the experiment with MCF-7 cancer cells [5] (5b 1.25 μM), 12.6. The Q4 quadrant was 83.9 in the experiment on MCF-7 cancer cells [5] (5b 0.3125 μM), 74.0 with MCF-7 cancer cells [5] (5b 0.625 μM) and 71.8 with MCF-7 cancer cells [5] (5b 1.25 μM). The “total numbers of early and late apoptotic cells” value came out at 15.78% in the experiment with MCF-7 cancer cells [5] (5b 0.3125 μM), 25.6% in the experiment with MCF-7 cancer cells [5] (5b 0.625 μM) and 27.7% with MCF-7 cancer cells [5] (5b 1.25 μM).

Turning to `CCC(=O)Nc1nc(-c2ccc(OC)c3ccccc23)c(-c2ccc(OC)cc2)s1` [6b], the IC50 in experiment [1] (Homo sapiens, MCF7) stood at 14.8 ± 0.45 µM; in experiment [2] (Homo sapiens, A549), 40.32 ± 0.32 µM.

For the compound `COc1ccc(/C=C\c2cc(OC)c(OC)c(OC)c2)cc1O` [CA-4, combretastatin A-4, reference compound], 0.029 ± 0.004 µM corresponded to half-maximal inhibition in experiment [2] (Homo sapiens, A549) (IC50).

For the compound `CCOc1ccc(-c2sc(NC(C)=O)nc2-c2ccc(OC)c3ccccc23)cc1` [6f], the IC50 in experiment [1] (Homo sapiens, MCF7) turned out to be 5.49 ± 0.84 µM; in experiment [2] (Homo sapiens, A549) it was 7 ± 0.3 µM.

With `COc1cc2nc(/C=N/c3cccnc3Nc3ccc(Cl)cc3)sc2c(OC)c1OC` [IV], in the experiment on tubulin, the IC50 was 8.4 µM.

Take `CCCC(=O)Nc1nc(-c2ccc(OC)c3ccccc23)c(-c2ccc(OCC)cc2)s1` [6h]: the IC50 in experiment [1] (Homo sapiens, MCF7) was 7.18 ± 0.78 µM; in experiment [2] (Homo sapiens, A549) it was above 50 µM.

Take `COc1ccc(-c2sc(NC(=O)C(Cl)(Cl)Cl)nc2-c2ccc(OC)c3ccccc23)cc1` [6d]: the half-maximal inhibitory concentration (IC50) was found to be 1.03 ± 0.09 µM in experiment [1] (Homo sapiens, MCF7); 1.91 ± 0.08 µM in experiment [2] (Homo sapiens, A549); 6.6 µM with purified tubulin protein.

For `CCCC(=O)N(C(=O)CCC)c1nc(-c2ccc(OC)c3ccccc23)c(-c2cc(OC)c(OC)c(OC)c2Br)s1` [6m], the half-inhibitory concentration (IC50) is above 50 µM in experiment [1] (Homo sapiens, MCF7) and above 50 µM in experiment [2] (Homo sapiens, A549).

In the case of `CCC(=O)N(C(C)=O)c1nc(-c2ccc(OC)c3ccccc23)c(-c2cc(OC)c(OC)c(OC)c2Br)s1` [6n, N-acetyl-N-(5-(2-bromo-3,4,5-trimethoxyphenyl)-4-(4-methoxynaphthalen-1-yl)thiazol-2-yl)propionamide], the IC50 in experiment [1] (Homo sapiens, MCF7) was found to be 13.5 ± 0.82 µM; in experiment [2] (Homo sapiens, A549) it was 16.3 ± 0.89 µM.

With `N.N.[Cl][Pt][Cl]` [Cisplatin, reference compound], the IC50 is 11.2 ± 0.75 µM in experiment [1] and 4.92 ± 0.56 µM in experiment [2].

(Values after PMC8317958, “Design, synthesis and biological evaluation of novel thiazole-naphthalene derivatives as potential anticancer agents and tubulin polymerisation inhibitors” (Journal of Enzyme Inhibition and Medicinal Chemistry, 2021).)
